These results are taken from patent US8623859B2, “Bradykinin B1 antagonists” (Evotec AG, priority 2008, dated 2014).

For this assay, the target named is T1, human B1 (Homo sapiens, UniProt P46663).
T1 construct: host or cells: CHO-K1
T1 sequence (P46663 1-353): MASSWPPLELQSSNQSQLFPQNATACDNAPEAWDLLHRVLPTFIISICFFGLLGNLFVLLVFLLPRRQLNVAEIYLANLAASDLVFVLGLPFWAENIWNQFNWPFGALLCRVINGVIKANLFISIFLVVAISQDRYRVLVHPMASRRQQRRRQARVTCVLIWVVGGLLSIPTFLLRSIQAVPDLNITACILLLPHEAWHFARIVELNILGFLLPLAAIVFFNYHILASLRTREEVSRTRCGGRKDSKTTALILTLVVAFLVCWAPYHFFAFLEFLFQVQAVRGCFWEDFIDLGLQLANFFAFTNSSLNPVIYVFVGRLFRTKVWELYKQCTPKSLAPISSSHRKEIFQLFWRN
The experiment in a line: Calcium flux assay for Bradykinin B1 antagonist, CHO-K1 cell line expressing human B1. Type of assay: cell-based. As to conditions: CHO-K1 cells expressing human B1, agonist Lys-(Des-Arg)-Bradykinin, read-out: Potency (IC50 value against human B1). In short, it runs like this: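 CHO-K1 cells expressing human B1, loaded with 5 μM Fluo-4AM (2 h, 37° C) in HEPES buffer pH 7.4 with probenecid and 0.1% BSA, were preincubated 30 min at 25° C with compound (8 concentrations, triplicate, 1% DMSO) before B1 agonist addition. Ca2+ fluorescence monitored at 538 nm; background-normalized integrated values plotted against log antagonist concentration.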

Counter-ions that a name gives are not always drawn.

By IC50 is commonly meant the concentration at which inhibition is half-maximal. Turning to `COc1cc(C)c(S(=O)(=O)N(Cc2nc(C(=O)N(C)Cc3ccc(CN4CCCC4)nc3)co2)C2CC2)c(C)c1` [Ex 203, 2-({Cyclopropyl[(4-methoxy-2,6-dimethylphenyl)sulfonyl]amino}methyl)-N-methyl-N-{[6-(pyrrolidin-1-ylmethyl)pyridin-3-yl]methyl}-1,3-oxazole-4-carboxamide], the IC50 was under 0.01 µM.
On to `COc1cc(C)c(S(=O)(=O)N(Cc2nc(C(=O)N3CCN(CCCCN(C)C)CC3)co2)C2CC2)c(C)c1` [Ex 204, N-Cyclopropyl-N-{[4-({4-[4-(dimethylamino)butyl]piperazin-1-yl}carbonyl)-1,3-oxazol-2-yl]methyl}-4-methoxy-2,6-dimethylbenzenesulfonamide trifluoroacetate], for which the IC50 is under 0.01 µM.
Take `COc1cc(C)c(S(=O)(=O)N(Cc2nc(C(=O)N3CC4CCNCC4C3)co2)C2CC2)c(C)c1` (stereo not drawn) [Ex 205, N-Cyclopropyl-4-methoxy-2,6-dimethyl-N-{[4-(octahydro-2H-pyrrolo[3,4-c]pyridin-2-ylcarbonyl)-1,3-oxazol-2-yl]methyl}benzenesulfonamide]: the IC50 lay in the range of 0.1 to 1 µM.
For `COc1cc(C)c(S(=O)(=O)N(Cc2nc(C(=O)N3CC4CCN(C5CCN(C)CC5)CC4C3)co2)C2CC2)c(C)c1` (stereo not drawn) [Ex 206, N-Cyclopropyl-4-methoxy-2,6-dimethyl-N-[(4-{[5-(1-methylpiperidin-4-yl)octahydro-2H-pyrrolo[3,4-c]pyridin-2-yl]carbonyl}-1,3-oxazol-2-yl)methyl]benzenesulfonamide trifluoroacetate] the value was 0.1 to 1 µM; for `COc1cc(C)c(S(=O)(=O)N(Cc2nc(C(=O)N3CC4CCN(C5CN6CCC5CC6)CC4C3)co2)C2CC2)c(C)c1` (stereo not drawn) [Ex 207, N-[(4-{[5-(1-Azabicyclo[2.2.2]oct-3-yl)octahydro-2H-pyrrolo[3,4-c]pyridin-2-yl]carbonyl}-1,3-oxazol-2-yl)methyl]-N-cyclopropyl-4-methoxy-2,6-dimethylbenzenesulfonamide trifluoroacetate], under 0.01 µM.
With `COc1cc(C)c(S(=O)(=O)N(Cc2nc(C(=O)N3CCC(N(C)C4CCN(C)CC4)C3)co2)C2CC2)c(C)c1` (stereo not drawn) [Ex 208, N-Cyclopropyl-4-methoxy-2,6-dimethyl-N-{[4-({3-[methyl(1-methylpiperidin-4-yl)amino]pyrrolidin-1-yl}carbonyl)-1,3-oxazol-2-yl]methyl}benzenesulfonamide trifluoroacetate], the IC50 lay within 0.1 to 1 µM.
For the molecule `COc1cc(C)c(S(=O)(=O)N(Cc2nc(C(=O)N3CC4CN(Cc5ccc(OC)nc5)CC4C3)co2)C2CC2)c(C)c1` (stereo not drawn) [Ex 209, N-Cyclopropyl-4-methoxy-N-{[4-({5-[(6-methoxypyridin-3-yl)methyl]hexahydropyrrolo[3,4-c]pyrrol-2(1H)-yl}carbonyl)-1,3-oxazol-2-yl]methyl}-2,6-dimethylbenzenesulfonamide trifluoroacetate], the concentration for half-maximal inhibition (IC50) lay in the range of 0.1 to 1 µM.
The same measure for `COc1cc(C)c(S(=O)(=O)N(Cc2nc(C(=O)N3CC4CCN(Cc5ccc(OC)nc5)CC4C3)co2)C2CC2)c(C)c1` (stereo not drawn) [Ex 210, N-Cyclopropyl-4-methoxy-N-{[4-({5-[(6-methoxypyridin-3-yl)methyl]octahydro-2H-pyrrolo[3,4-c]pyridin-2-yl}carbonyl)-1,3-oxazol-2-yl]methyl}-2,6-dimethylbenzenesulfonamide trifluoroacetate]: 0.01 to 0.1 µM; for `COc1cc(C)c(S(=O)(=O)N(Cc2nc(C(=O)N3CC4CCN(Cc5ccc(N6CCCC6)nc5)CC4C3)co2)C2CC2)c(C)c1` (stereo not drawn) [Ex 211, N-Cyclopropyl-4-methoxy-2,6-dimethyl-N-{[4-({5-[(6-pyrrolidin-1-ylpyridin-3-yl)methyl]octahydro-2H-pyrrolo[3,4-c]pyridin-2-yl}carbonyl)-1,3-oxazol-2-yl]methyl}benzenesulfonamide trifluoroacetate]: under 0.01 µM.
